Assay results reported in PubChem BioAssay AID2060887 (Molecular Pharmacology Branch, DTP, NCI, 2025).

Test system: 782815-120-R-J1-PDC complex spheroid viability
Assay: Anticancer human tumor 782815-120-R-J1-PDC patient-derived colon adenocarcinoma cell line growth inhibition [RAS]
Conditions: for IC50: curve of first compound; for viability, T/C: stronger effect = lower value; active means viability on the fitted dose curve at most 10% of control; inactive means the rest
How it was run: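 Multi-cell-type spheroids: tumor cells plus HUVEC endothelial cells and mesenchymal stem cells. RAS-pathway inhibitors were combined with targeted agents, each dosed in half-log steps down from clinical Cmax, or from 10 microM when Cmax was unknown.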

[1] = second compound 0.00316 µM, first compound 0.0316 µM
[2] = second compound 0.00316 µM, first compound 0.1 µM
[3] = second compound 0.01 µM, first compound 0.0316 µM
[4] = second compound 0.01 µM, first compound 0.1 µM
[5] = second compound 0.0316 µM, first compound 0.0316 µM
[6] = second compound 0.0316 µM, first compound 0.1 µM
[7] = second compound 0.1 µM, first compound 0.0316 µM
[8] = second compound 0.1 µM, first compound 0.1 µM
[9] = second compound 0.316 µM, first compound 0.0316 µM
[10] = second compound 0.316 µM, first compound 0.1 µM
[11] = second compound 1 µM, first compound 0.0316 µM
[12] = second compound 1 µM, first compound 0.1 µM
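Further: spheroids exposed to compounds for 7 days before reading.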
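Wherever viability, T/C is given: 100% = DMSO vehicle control viability.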

CC(C)NCC(C(=O)N1CCN(c2ncnc3c2C(C)CC3O)CC1)c1ccc(Cl)cc1 (centres undefined) + C=CC(=O)N1CCN(c2nc(OCC3CCCN3C)nc3c(F)c(-c4nc(N)cc(C)c4C(F)(F)F)c(Cl)cc23)C(C)C1
> 10 µM: IC50 (second compound 0.00316 µM) | IC50 (second compound 0.01 µM) | IC50 (second compound 0.0316 µM) | IC50 (second compound 0.1 µM) | IC50 (second compound 0.316 µM) | IC50 (second compound 1 µM)
inactive: viability, T/C [1] 98.4% | viability, T/C [2] 97% | viability, T/C (second compound 0.00316 µM, first compound 0.316 µM) 102% | viability, T/C (second compound 0.00316 µM, first compound 1 µM) 92% | viability, T/C (second compound 0.00316 µM, first compound 3.16 µM) 99% | viability, T/C (second compound 0.00316 µM, first compound 10 µM) 98.7% | viability, T/C [3] 101% | viability, T/C [4] 93.3% | viability, T/C (second compound 0.01 µM, first compound 0.316 µM) 91.1% | viability, T/C (second compound 0.01 µM, first compound 1 µM) 93.2% | viability, T/C (second compound 0.01 µM, first compound 3.16 µM) 101% | viability, T/C (second compound 0.01 µM, first compound 10 µM) 96.9% | viability, T/C [5] 96.2% | viability, T/C [6] 96.8% | viability, T/C (second compound 0.0316 µM, first compound 0.316 µM) 94.3% | viability, T/C (second compound 0.0316 µM, first compound 1 µM) 87.9% | viability, T/C (second compound 0.0316 µM, first compound 3.16 µM) 96.3% | viability, T/C (second compound 0.0316 µM, first compound 10 µM) 101% | viability, T/C [7] 104% | viability, T/C [8] 95.2% | viability, T/C (second compound 0.1 µM, first compound 0.316 µM) 96.4% | viability, T/C (second compound 0.1 µM, first compound 1 µM) 94.5% | viability, T/C (second compound 0.1 µM, first compound 3.16 µM) 95.9% | viability, T/C (second compound 0.1 µM, first compound 10 µM) 104% | viability, T/C [9] 106% | viability, T/C [10] 93.4% | viability, T/C (second compound 0.316 µM, first compound 0.316 µM) 93% | viability, T/C (second compound 0.316 µM, first compound 1 µM) 88.5% | viability, T/C (second compound 0.316 µM, first compound 3.16 µM) 96.7% | viability, T/C (second compound 0.316 µM, first compound 10 µM) 92.6% | viability, T/C [11] 105% | viability, T/C [12] 100% | viability, T/C (second compound 1 µM, first compound 0.316 µM) 92.5% | viability, T/C (second compound 1 µM, first compound 1 µM) 98.9% | viability, T/C (second compound 1 µM, first compound 3.16 µM) 103% | viability, T/C (second compound 1 µM, first compound 10 µM) 99.1%

CC(C)n1nc(-c2ccc3oc(N)nc3c2)c2c(N)ncnc21 + C=CC(=O)N1CCN(c2nc(OCC3CCCN3C)nc3c(F)c(-c4nc(N)cc(C)c4C(F)(F)F)c(Cl)cc23)C(C)C1
inactive: viability, T/C (second compound 0.00316 µM, first compound 0.000316 µM) 101% | viability, T/C (second compound 0.00316 µM, first compound 0.001 µM) 101% | viability, T/C (second compound 0.00316 µM, first compound 0.00316 µM) 96.1% | viability, T/C (second compound 0.00316 µM, first compound 0.01 µM) 91.7% | viability, T/C [1] 90.2% | viability, T/C [2] 93.1% | viability, T/C (second compound 0.01 µM, first compound 0.000316 µM) 99.8% | viability, T/C (second compound 0.01 µM, first compound 0.001 µM) 95.9% | viability, T/C (second compound 0.01 µM, first compound 0.00316 µM) 100% | viability, T/C (second compound 0.01 µM, first compound 0.01 µM) 89.1% | viability, T/C [3] 92.7% | viability, T/C [4] 95.5% | viability, T/C (second compound 0.0316 µM, first compound 0.000316 µM) 101% | viability, T/C (second compound 0.0316 µM, first compound 0.001 µM) 102% | viability, T/C (second compound 0.0316 µM, first compound 0.00316 µM) 98.7% | viability, T/C (second compound 0.0316 µM, first compound 0.01 µM) 95.8% | viability, T/C [5] 92.2% | viability, T/C [6] 91.4% | viability, T/C (second compound 0.1 µM, first compound 0.000316 µM) 98.7% | viability, T/C (second compound 0.1 µM, first compound 0.001 µM) 102% | viability, T/C (second compound 0.1 µM, first compound 0.00316 µM) 91.3% | viability, T/C (second compound 0.1 µM, first compound 0.01 µM) 92.1% | viability, T/C [7] 105% | viability, T/C [8] 92.6% | viability, T/C (second compound 0.316 µM, first compound 0.000316 µM) 97.5% | viability, T/C (second compound 0.316 µM, first compound 0.001 µM) 105% | viability, T/C (second compound 0.316 µM, first compound 0.00316 µM) 95.1% | viability, T/C (second compound 0.316 µM, first compound 0.01 µM) 102% | viability, T/C [9] 92.8% | viability, T/C [10] 94.7% | viability, T/C (second compound 1 µM, first compound 0.000316 µM) 104% | viability, T/C (second compound 1 µM, first compound 0.001 µM) 104% | viability, T/C (second compound 1 µM, first compound 0.00316 µM) 91.5% | viability, T/C (second compound 1 µM, first compound 0.01 µM) 96.9% | viability, T/C [11] 94.1% | viability, T/C [12] 87.7%
> 0.1 µM: IC50 (second compound 0.00316 µM) | IC50 (second compound 0.01 µM) | IC50 (second compound 0.0316 µM) | IC50 (second compound 0.1 µM) | IC50 (second compound 0.316 µM) | IC50 (second compound 1 µM)
